Legend:
[1] = system: murine leukemia (L1210) cells; assay: In vitro antiproliferative assay, L1210 cells; type: cell-based; conditions: Mus musculus
From the text: In Table 1 we report the in vitro antiproliferative activity of 2-(3′,4′,5′-trimethoxyanilino)-4,5,6,7-tetrahydrothieno[2,3-c]pyridine derivatives 3a–3j and the related 4,5,6,7-tetrahydrobenzo[b]thiophenes 3k–3p against a panel of three cell lines, which were derived from different cancer types, including murine leukemia (L1210), human T-lymphoblastoid leukemia (CEM), and human cervix carcinoma (HeLa) cells.
(§1) Murine leukemia L1210, human T-lymphocyte leukemia CEM, human cervix carcinoma (HeLa), and human chronic myelogenous leukemia K562 cells (3–5 × 10^4 cells) and a serial (5-fold) dilution of the test compounds were added to a 96-well microtiter plate. The cells were incubated for 72 h at 37 °C in a humidified 5% CO2 atmosphere. At the end of the incubation period, the cells were counted in a Coulter Counter (Coulter Electronics Ltd., Harpenden Herts, United Kingdom). The IC50 (50% inhibitory concentration) was defined as the concentration of compound that inhibited cell proliferation by 50%. The IC50 values represent the average (± standard deviation) of three independent experiments. Human peripheral blood mononuclear cells (PBMC) were obtained from healthy donors by centrifugation with Ficoll-Paque Plus (GE Healthcare Bio-Sciences AB, Uppsala).

Bovine brain tubulin = assay: Inhibition of tubulin polymerization (turbidimetric assembly); type: biochemical; conditions: tubulin at 10 μM, 20 min incubation; read-out: Tubulin assembly IC50 ± SD
Description: (§2) Bovine brain tubulin was purified as described previously. To evaluate the effect of the compounds on tubulin assembly in vitro [59], varying concentrations were preincubated with 10 μM tubulin in 0.8 M glutamate buffer at 30 °C and then cooled to 0 °C. After addition of GTP, the mixtures were transferred to 0 °C cuvettes in a recording spectrophotometer and warmed to 30 °C, and the assembly of tubulin was observed turbidimetrically. […] The ability of the test compounds to inhibit colchicine binding to tubulin was measured as described earlier, except that the reaction mixtures contained 1 μM tubulin, 5 μM of [^3H]colchicine, and test compounds 3a or 3b.

[2] = system: tubulin (colchicine site); assay: Inhibition of [3H]colchicine binding to tubulin; parameters: species or system Bovine; conditions: tubulin 1 μM, colchicine 5 μM, compound 5 μM
Description: as §2

[3] = system: human T-lymphoblastoid leukemia (CEM) cells; assay: In vitro antiproliferative assay, CEM cells; type: cell-based; conditions: CCRF-CEM; human T-lymphocyte CEM, 72 h, cell count; mean ± SE
Description: as §1, with “The IC50 (50% inhibitory concentration) was defined as the concentration of compound that inhibited cell proliferation by 50%.” left out

[4] = system: human cervix carcinoma (HeLa) cells; assay: In vitro antiproliferative assay, HeLa cells; type: cell-based; conditions: human cervix carcinoma HeLa, 72 h, cell count; mean ± SE
Description: as §1, with “The IC50 (50% inhibitory concentration) was defined as the concentration of compound that inhibited cell proliferation by 50%.” left out

[5] = murine leukemia L1210, 72 h, cell count, mean ± SE

Structure (SMILES)	IC50 [1, 5] [µM]	IC50 [3] [µM]	IC50 [4] [µM]	melting point [°C]	IC50 ([1]; L1210, 72 h) [µM]	IC50 (Bovine brain tubulin) [µM]	Colchicine binding % ± SD (inhibition of [3H]colchicine binding) [2] [%]
CCOC(=O)N1CCc2c(sc(NC(=O)c3cccs3)c2C#N)C1 [Compound 2b, reference compound]	6 ± 0.3	3.7 ± 1.2	41 ± 27				
CCOC(=O)N1CCc2c(sc(Nc3cc(OC)c(OC)c(OC)c3)c2C(=O)OC)C1 [Compound 3d, 6-Ethyl 3-methyl 2-((3,4,5-trimethoxyphenyl)amino)-4,5-dihydrothieno[2,3-c]pyridine-3,6(7H)-dicarboxylate]	15 ± 2	12 ± 4	16 ± 3	76 to 78			
COC(=O)c1c(Nc2cc(OC)c(OC)c(OC)c2)sc2c1CCN(C(C)=O)C2 [Compound 3e, Methyl 6-acetyl-2-((3,4,5-trimethoxyphenyl)amino)-4,5,6,7-tetrahydrothieno[2,3-c]pyridine-3-carboxylate]	26 ± 2	43 ± 12	48 ± 17	90 to 91			
CCOC(=O)c1c(Nc2cc(OC)c(OC)c(OC)c2)sc2c1CCN(C(=O)OC)C2 [Compound 3f, 3-Ethyl 6-methyl 2-((3,4,5-trimethoxyphenyl)amino)-4,5-dihydrothieno[2,3-c]pyridine-3,6(7H)-dicarboxylate]	22 ± 4	22 ± 8	67 ± 20	128 to 130			
CCOC(=O)c1c(Nc2cc(OC)c(OC)c(OC)c2)sc2c1CCN(C(=O)OCC)C2 [Compound 3g, Diethyl 2-((3,4,5-trimethoxyphenyl)amino)-4,5-dihydrothieno[2,3-c]pyridine-3,6(7H)-dicarboxylate]	19	19 ± 1	19 ± 4	67 to 69			
CCOC(=O)c1c(Nc2cc(OC)c(OC)c(OC)c2)sc2c1CCN(C(C)=O)C2 [Compound 3h, Ethyl 6-acetyl-2-((3,4,5-trimethoxyphenyl)amino)-4,5,6,7-tetrahydrothieno[2,3-c]pyridine-3-carboxylate]	25 ± 3	34 ± 9	24 ± 3	93 to 95			
COc1cc(Nc2sc3c(c2C#N)CCC(C)C3)cc(OC)c1OC (centres unmarked) [Compound 3k, 6. -Methyl-2-((3,4,5-trimethoxyphenyl)amino)-4,5,6,7-tetrahydrobenzo[b]thiophene-3-carbonitrile]	> 250	> 250	202 ± 25	112 to 114			
COc1cc(Nc2sc3c(c2C#N)CCC(c2ccccc2)C3)cc(OC)c1OC (centres unmarked) [Compound 3l, 6. -Phenyl-2-((3,4,5-trimethoxyphenyl)amino)-4,5,6,7-tetrahydrobenzo[b]thiophene-3-carbonitrile]	92 ± 29	58 ± 53	124 ± 8	169 to 170			
CCOC(=O)c1c(Nc2cc(OC)c(OC)c(OC)c2)sc2c1CCC(C)C2 (centres unmarked) [Compound 3o, Ethyl 6-methyl-2-((3,4,5-trimethoxyphenyl)amino)-4,5,6,7-tetrahydrobenzo[b]thiophene-3-carboxylate]	86 ± 41	78 ± 33	66 ± 6	90 to 92			

The remaining compounds from weak to strong by IC50 [1, 5], led by results:

IC50 [1, 5] [µM]	IC50 [3] [µM]	IC50 [4] [µM]	melting point [°C]	Structure (SMILES)	IC50 ([1]; L1210, 72 h) [µM]	IC50 (Bovine brain tubulin) [µM]	Colchicine binding % ± SD (inhibition of [3H]colchicine binding) [2] [%]
112 ± 1	88 ± 12	169 ± 18	98 to 100	CCOC(=O)c1c(Nc2cc(OC)c(OC)c(OC)c2)sc2c1CCC(c1ccccc1)C2 (centres unmarked) [Compound 3p, Ethyl 6-phenyl-2-((3,4,5-trimethoxyphenyl)amino)-4,5,6,7-tetrahydrobenzo[b]thiophene-3-carboxylate]			
101 ± 9	102 ± 50	48 ± 6	147 to 148	COC(=O)c1c(Nc2cc(OC)c(OC)c(OC)c2)sc2c1CCC(c1ccccc1)C2 (centres unmarked) [Compound 3n, Methyl 6-phenyl-2-((3,4,5-trimethoxyphenyl)amino)-4,5,6,7-tetrahydrobenzo[b]thiophene-3-carboxylate]			
82 ± 13	45 ± 17	11 ± 6	127 to 129	COC(=O)c1c(Nc2cc(OC)c(OC)c(OC)c2)sc2c1CCC(C)C2 (centres unmarked) [Compound 3m, Methyl 6-methyl-2-((3,4,5-trimethoxyphenyl)amino)-4,5,6,7-tetrahydrobenzo[b]thiophene-3-carboxylate]			
19 ± 3	19 ± 2	20 ± 4	60 to 62	CCOC(=O)N1CCc2c(sc(Nc3cc(OC)c(OC)c(OC)c3)c2C(=O)OC(C)(C)C)C1 [Compound 3j, 3-tert-butyl 6-ethyl 2-((3,4,5-trimethoxyphenyl)amino)-4,5-dihydrothieno[2,3-c]pyridine-3,6(7H)-dicarboxylate]			
18 ± 3	20 ± 2	14 ± 1	50 to 52	COC(=O)N1CCc2c(sc(Nc3cc(OC)c(OC)c(OC)c3)c2C(=O)OC(C)(C)C)C1 [Compound 3i, 3-tert-butyl 6-methyl 2-((3,4,5-trimethoxyphenyl)amino)-4,5-dihydrothieno[2,3-c]pyridine-3,6(7H)-dicarboxylate]			
17 ± 5	16 ± 4	23 ± 10	140 to 141	COC(=O)c1c(Nc2cc(OC)c(OC)c(OC)c2)sc2c1CCN(C(=O)OC)C2 [Compound 3c, Dimethyl 2-((3,4,5-trimethoxyphenyl)amino)-4,5-dihydrothieno[2,3-c]pyridine-3,6(7H)-dicarboxylate]			
